We go through one molecule from US20210361701A1, “PENTAAZA MACROCYCLIC RING COMPLEXES FOR LOCAL DELIVERY” (Galera Labs, LLC, priority 2017, published 2021).

Like-named read-outs stand apart in the source and are kept apart here.

Data set [1] is described as follows: Plasma pharmacokinetics after intraduodenal or intravenous dosing in female rats. It is filed as in vivo. As for the experimental part:
Therefore, following equivalent doses of GC4403, the systemic exposure to an ID dose in this Example was at least 30-100 times lower than it would be from an IV dose. […] This is important since the No Observable Adverse Effect Level (NOAEL) for chronic repeated IV dosing of GC4403 in the rat was previously shown to be only 3 mg/kg/day, and at this time, GC4403 has only be administered successfully to humans by the IV route. Thus, GC4403 or another related dismutase mimetic, such as GC4419, administered as an appropriate oral dosage form delivering drug directly into the small intestine may be an effective treatment for Crohn's Disease, ulcerative colitis and related diseases in humans.

Data set [2] is described as follows: Maximum tolerated dose by 30-minute iv infusion in humans. The conditions noted are these: in a 70-kg subject.
For data set [3] the following is noted: chronic repeated IV dosing, rat; cited from earlier work.
The conditions of data set [4]: 30-minute iv infusion in humans; cited from earlier work.
The nature of data set [5]: Rat indomethacin model of intestinal inflammation (Crohn's Disease). Type of data set: in vivo, Female Lewis rats. How it is done: A study was conducted to determine the potential efficacy of GC4403 delivered locally to the intestine in a model of intestinal inflammation (Crohn's Disease) induced by the administration of indomethacin. Female Lewis rats received cannulae surgically implanted in the duodenum with the opposite end exteriorized, and were allowed to recover. The cannulae enabled the direct injection of GC4403 or vehicle into the duodenum (intraduodenal or ID dosing) in these animals; however, uncannulated female Lewis rats were used for dosing groups not receiving ID dosing. Rats were administered indomethacin on experimental days 0 and 1 (9 mg/kg/d; subcutaneously) to induce lesions similar to those occurring in Crohn's disease in the small intestine (SI). The therapeutic interventions outlined in Table II were administered in 9 dosing groups of 10 (IV) or 12 (ID) animals each on days 0 through 3:
The rats were sacrificed and necropsied on day 4, and 10 cm sections from the middle portion of the SI (jejunum) were weighed and examined by histopathology for inflammation. The weight of a 10 cm section serves as a surrogate marker for comparing inflammation and edema across the dosing groups.

Setting [6] is: 10 mg/kg IP injection on days 0-3.
The mark [7] stands for this setting: 30 mg/kg ID, direct topical delivery into the intestine.

On to `[Cl-].[Cl-].[Mn+2].c1cc2nc(c1)CN[C@@H]1CCCC[C@H]1NCCN[C@@H]1CCCC[C@H]1NC2` [GC4403], for which the mean plasma maximum result in data set [1] (3 mg/kg IV dose, separate study, measured 10 min after injection) is “at least 3,280 ng/mL”. For the same molecule, in data set [1] (30 mg/kg ID dose), the “mean plasma maximum (Cmax)” value is 0.303 µg/mL. For the same molecule, the calculated bioavailability in data set [1] (30 mg/kg ID dose, AUC of ID vs estimated AUC with IV) is recorded as 3.1%. Moreover, the “expected Cmax extrapolated” value in data set [1] (30 mg/kg IV dose) was “approximately 32,800 ng/mL”. In data set [1] (30 mpk ID vs 30 mg/kg IV (extrapolated)), the “Cmax of ID dose relative to expected Cmax of same dose IV” value is on record as “less than 1%”. For the same molecule, the “systemic exposure to an ID dose, lower than from an IV dose” value in data set [1] (equivalent doses) was 30-100 times. Besides, in data set [2], the maximum tolerated dose result is reported as “roughly 0.35 mg/kg”. The “No Observable Adverse Effect Level (NOAEL)” value in data set [3] is 3 mg/kg/day. In addition, the maximum tolerated dose in data set [4] is reported as 25 mg. In addition, in data set [5] (setting [6]), the jejunal score result is on record as “reduced” and the jejunal weight result is on record as “reduced”. Besides, in data set [5] (setting [7]), the “reduction in jejunal score” value was found to be 21% and the “reduction in jejunal weight” value worked out at 32%.
